Measured values: BindingDB's records for doi:10.1021/jm00403a011 (Bristol Myers Squibb, 1988)

Biological target: D(2) dopamine receptor (Rattus norvegicus, UniProt P61169)
Experiment: ChEBML_61437
Experimental: In vitro antagonistic activity against Dopamine receptor D2 was evaluated for the inhibition of [3H]spiperone binding

Chain of D(2) dopamine receptor (P61169 whole entry): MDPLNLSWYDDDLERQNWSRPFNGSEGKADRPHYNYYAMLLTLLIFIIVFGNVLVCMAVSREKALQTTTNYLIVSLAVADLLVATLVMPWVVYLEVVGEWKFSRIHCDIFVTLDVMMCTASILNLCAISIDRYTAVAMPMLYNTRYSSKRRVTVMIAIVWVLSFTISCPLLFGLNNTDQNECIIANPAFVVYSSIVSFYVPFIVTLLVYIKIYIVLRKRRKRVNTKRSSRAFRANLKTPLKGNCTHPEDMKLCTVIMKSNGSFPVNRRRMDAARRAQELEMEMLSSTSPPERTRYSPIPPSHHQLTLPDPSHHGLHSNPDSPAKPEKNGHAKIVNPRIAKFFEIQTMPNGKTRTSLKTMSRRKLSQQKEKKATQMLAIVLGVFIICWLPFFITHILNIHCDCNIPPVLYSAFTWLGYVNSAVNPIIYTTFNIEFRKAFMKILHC

| IC50 | Compound |
| --- | --- |
| > 1 µM | CCN(CC)CCNC(=O)c1cc(Cl)c(N)cc1OC(C)C(C)N=O (configuration not stated) [4-Amino-5-chloro-N-(2-diethylamino-ethyl)-2-(2-hydroxyimino-1-methyl-propoxy)-benzamide] |
| > 1 µM | CCN(CC)CCNC(=O)c1cc(Cl)c(N)cc1OCC(C)N=O (configuration not stated) [4-Amino-5-chloro-N-(2-diethylamino-ethyl)-2-(2-hydroxyimino-propoxy)-benzamide] |
